Converted amounts (≈) assume the structure as drawn.
Columns and labels:
HCT-116 = experiment: Cytotoxicity against human HCT116 cells after 24 hrs; format: functional, cell-based; settings: HCT-116, 24 h
A549 = experiment: Cytotoxicity against human A549 cells after 24 hrs; format: functional, cell-based; settings: A549, 24 h

## COc1ccc2cc(N(C)C(=O)C3=NO[C@H]4[C@H](O)C=C[C@@H](O)[C@@]4(O)C3)c(=O)oc2c1OC [TRICHODERMAMIDE C]
HCT-116
  IC50: 0.68 µg/mL (≈ 1.52 µM)
A549
  IC50: 4.28 µg/mL (≈ 9.59 µM)

Reference: ChEMBL document CHEMBL1145624, “The isolation, structure determination and cytotoxicity of the new fungal metabolite, trichodermamide C” (Bioorg Med Chem Lett, 2008)
